Results as given in ChEMBL document CHEMBL3885881, “DrugMatrix”.

Species on record: Rattus norvegicus
Assay: DrugMatrix - Regimen: Daily Repeat
Type: toxicity, organism-based, Sprague-Dawley
Design: regimen Daily Repeat, gender Male, age 6-8 weeks
Details: in vivo, po, route oral GAVAGE, vehicle .5 % CMC; for ABSOLUTE BASOPHIL / ABSOLUTE EOSINOPHIL / ABSOLUTE LYMPHOCYTE / ABSOLUTE MONOCYTE / ABSOLUTE SEGMENTED NEUTROPHIL / BASOPHIL / EOSINOPHIL / ERYTHROCYTE COUNT / HEMATOCRIT / HEMOGLOBIN / LEUKOCYTE COUNT / LYMPHOCYTE / MEAN CORPUSCULAR HEMOGLOBIN / MEAN CORPUSCULAR HEMOGLOBIN CONCENTRATION / MEAN CORPUSCULAR VOLUME / MONOCYTE / NEUTROPHIL / NUCLEATED RED BLOOD CELLS / PLATELET COUNT: tissue Blood; for ALANINE AMINOTRANSFERASE / ALBUMIN / ALKALINE PHOSPHATASE / ASPARTATE AMINOTRANSFERASE / BLOOD UREA NITROGEN / CARBON DIOXIDE / CHLORIDE / CHOLESTEROL / CREATINE PHOSPHOKINASE / CREATININE / GLUCOSE / LACTATE DEHYDROGENASE / LIPASE / PHOSPHORUS / POTASSIUM / SODIUM / TOTAL BILIRUBIN / TOTAL PROTEIN / URIC ACID: tissue Plasma
[1] = 0 mg/kg, 72 h, dose level Control, time 3 day
[2] = 0 mg/kg, 120 h, dose level Control, time 5 day
[3] = 2000 mg/kg, 72 h, dose level High, time 3 day

O=C1Nc2ccc(Cl)cc2C(c2ccccc2Cl)=NC1O (centres undefined) [LORAZEPAM]
ABSOLUTE BASOPHIL [1]: 0 CELLS/uL
ABSOLUTE EOSINOPHIL [1]: 171.33 CELLS/uL
ABSOLUTE LYMPHOCYTE [1]: 13776.5 CELLS/uL
ABSOLUTE MONOCYTE [1]: 180.83 CELLS/uL
ABSOLUTE SEGMENTED NEUTROPHIL [1]: 1121.33 CELLS/uL
BASOPHIL [1]: 0%
EOSINOPHIL [1]: 1%
ERYTHROCYTE COUNT [1]: 5.56 x10E6/uL
HEMATOCRIT [1]: 34.75%
HEMOGLOBIN [1]: 13.68 G/DL
LEUKOCYTE COUNT [1]: 15.25 x10E3/uL
LYMPHOCYTE [1]: 90.17%
MEAN CORPUSCULAR HEMOGLOBIN [1]: 24.6 pg
MEAN CORPUSCULAR HEMOGLOBIN CONCENTRATION [1]: 39.4 G/DL
MEAN CORPUSCULAR VOLUME [1]: 62.48 fL
MONOCYTE [1]: 1.17%
NEUTROPHIL [1]: 7.67%
NUCLEATED RED BLOOD CELLS [1]: 0 /100WBC
PLATELET COUNT [1]: 1342 x10E3/uL
ALANINE AMINOTRANSFERASE [1]: 49.67 u/L
ALBUMIN [1]: 4.15 G/DL
ALKALINE PHOSPHATASE [1]: 346.83 u/L
ASPARTATE AMINOTRANSFERASE [1]: 108.17 u/L
BLOOD UREA NITROGEN [1]: 17.33 mg/dL
CARBON DIOXIDE [1]: 25 mmol/L
CHLORIDE [1]: 100.83 MEQ/L
CHOLESTEROL [1]: 66.83 mg/dL
CREATINE PHOSPHOKINASE [1]: 788 u/L
CREATININE [1]: 0.18 mg/dL
GLUCOSE [1]: 151.67 mg/dL
LACTATE DEHYDROGENASE [1]: 982.5 u/L
LIPASE [1]: 10.33 u/L
PHOSPHORUS [1]: 11.23 mg/dL
POTASSIUM [1]: 6.37 MEQ/L
SODIUM [1]: 141.02 MEQ/L
TOTAL BILIRUBIN [1]: 0.18 mg/dL
TOTAL PROTEIN [1]: 5.9 G/DL
URIC ACID [1]: 1.8 mg/dL
ABSOLUTE BASOPHIL [2]: 0 CELLS/uL
ABSOLUTE EOSINOPHIL [2]: 69 CELLS/uL
ABSOLUTE LYMPHOCYTE [2]: 13632.83 CELLS/uL
ABSOLUTE MONOCYTE [2]: 139.83 CELLS/uL
ABSOLUTE SEGMENTED NEUTROPHIL [2]: 1225 CELLS/uL
BASOPHIL [2]: 0%
EOSINOPHIL [2]: 0.33%
ERYTHROCYTE COUNT [2]: 5.52 x10E6/uL
HEMATOCRIT [2]: 33.98%
HEMOGLOBIN [2]: 13.22 G/DL
LEUKOCYTE COUNT [2]: 15.07 x10E3/uL
LYMPHOCYTE [2]: 90.83%
MEAN CORPUSCULAR HEMOGLOBIN [2]: 23.95 pg
MEAN CORPUSCULAR HEMOGLOBIN CONCENTRATION [2]: 38.9 G/DL
MEAN CORPUSCULAR VOLUME [2]: 61.53 fL
MONOCYTE [2]: 0.83%
NEUTROPHIL [2]: 8%
NUCLEATED RED BLOOD CELLS [2]: 0 /100WBC
PLATELET COUNT [2]: 1196 x10E3/uL
ALANINE AMINOTRANSFERASE [2]: 49.17 u/L
ALBUMIN [2]: 4.2 G/DL
ALKALINE PHOSPHATASE [2]: 352.33 u/L
ASPARTATE AMINOTRANSFERASE [2]: 89.67 u/L
BLOOD UREA NITROGEN [2]: 18 mg/dL
CARBON DIOXIDE [2]: 27.67 mmol/L
CHLORIDE [2]: 101 MEQ/L
CHOLESTEROL [2]: 72.83 mg/dL
CREATINE PHOSPHOKINASE [2]: 417.5 u/L
CREATININE [2]: 0.18 mg/dL
GLUCOSE [2]: 150.5 mg/dL
LACTATE DEHYDROGENASE [2]: 517.33 u/L
LIPASE [2]: 9 u/L
PHOSPHORUS [2]: 11.87 mg/dL
POTASSIUM [2]: 6.57 MEQ/L
SODIUM [2]: 143.62 MEQ/L
TOTAL BILIRUBIN [2]: 0.2 mg/dL
TOTAL PROTEIN [2]: 6.08 G/DL
URIC ACID [2]: 1.45 mg/dL
ABSOLUTE BASOPHIL [3]: 0 CELLS/uL
ABSOLUTE EOSINOPHIL [3]: 93.33 CELLS/uL
ABSOLUTE LYMPHOCYTE [3]: 11320 CELLS/uL
ABSOLUTE MONOCYTE [3]: 259.33 CELLS/uL
ABSOLUTE SEGMENTED NEUTROPHIL [3]: 1294 CELLS/uL
BASOPHIL [3]: 0%
EOSINOPHIL [3]: 0.67%
ERYTHROCYTE COUNT [3]: 6.11 x10E6/uL
HEMATOCRIT [3]: 38.6%
HEMOGLOBIN [3]: 15.07 G/DL
LEUKOCYTE COUNT [3]: 12.97 x10E3/uL
LYMPHOCYTE [3]: 87.33%
MEAN CORPUSCULAR HEMOGLOBIN [3]: 24.63 pg
MEAN CORPUSCULAR HEMOGLOBIN CONCENTRATION [3]: 39.03 G/DL
MEAN CORPUSCULAR VOLUME [3]: 63.1 fL
MONOCYTE [3]: 2%
NEUTROPHIL [3]: 10%
NUCLEATED RED BLOOD CELLS [3]: 0 /100WBC
PLATELET COUNT [3]: 1214.33 x10E3/uL
ALANINE AMINOTRANSFERASE [3]: 72.67 u/L
ALBUMIN [3]: 4.4 G/DL
ALKALINE PHOSPHATASE [3]: 338 u/L
ASPARTATE AMINOTRANSFERASE [3]: 105.33 u/L
BLOOD UREA NITROGEN [3]: 24 mg/dL
CARBON DIOXIDE [3]: 21.33 mmol/L
CHLORIDE [3]: 99.33 MEQ/L
CHOLESTEROL [3]: 119.67 mg/dL
CREATINE PHOSPHOKINASE [3]: 966.67 u/L
CREATININE [3]: 0.22 mg/dL
GLUCOSE [3]: 161.67 mg/dL
LACTATE DEHYDROGENASE [3]: 346.33 u/L
LIPASE [3]: 16.67 u/L
PHOSPHORUS [3]: 10.23 mg/dL
POTASSIUM [3]: 5.79 MEQ/L
SODIUM [3]: 140.87 MEQ/L
TOTAL BILIRUBIN [3]: 0.27 mg/dL
TOTAL PROTEIN [3]: 6.23 G/DL
URIC ACID [3]: 1.5 mg/dL
